Measured values reported in US5026836A, “6-sulfenamide, 6-sulfinamide and 6-sulfonamide purines, purine nucleosides, purine nucleotides, pharmaceutical compositions, and processes of making” (priority 1988, dated 1991).
Read-outs that look alike come from different tables or passages of the source. Starred links: 1 amine or outer side, 2 acyl side, 3 side chain; linkers in the order of their positions; H or OH if unused. Positions of bridges follow the written chain, without caps; N, C: chain ends. Non-standard residues stand in square brackets, D forms with d. Residues, ends and D or L forms follow the SMILES beside them. Chains are numbered I, II in the order given. Actinocin(9to1) = Cc1c2oc3c(C)ccc(C(=O)[*:1])c3nc-2c(C(=O)[*:2])c(N)c1=O; NMeV = CN[C@H](C(=O)O)C(C)C; Sar = CNCC(=O)O

Columns and labels:
[1] = Solubility (maximum solubility); type: physicochemical
L1210 cells [2] = assay: L1210 cells surviving treatment (% of original inoculum); type: in vivo, mouse; details: for L1210 cells surviving treatment (% of original inoculum): ip day 1, Enantiomer A 37 mg/kg, Enantiomer B 173 mg/kg
Description: (§1) Values below 25% are considered capable of producing effective therapy, those below 10% are considered good and those below 5% are considered very good. This expresses the percent of the cells which survived treatment based upon the original cells in the inoculum. Those tests expressed as increases in life span (% ILS) indicate the increased life span of the drug treated group compared to a control group.
As an indicator of reproducible activity, compounds of the invention and other known cancer chemotherapeutic agents were screened against L1210 lymphoid leukemia in vivo utilizing the mouse as a test species. Normal NCI protocols for this test require 10^5 seed cells of the L1210 cell line. However for the purposes of tests with the L1210 cell line in testing the compounds of the invention for antitumor activity, a log greater, i.e. 10^6 cells were utilized.
Tables 2-a and 2-b illustrate a dose response for Compound 19 against L1210 inoculated mice expressed as both increased life span compared to control and as the number of cells of the original inoculum surviving drug treatment. As is evident from the various regimens of drug treatment shown in Tables 2-a and 2-b, effective therapeutic effects are noted and a dose response to Compound 19 is evident. […] Cytosine Arabinoside must be given every three hours. Test results are given utilizing standard protocols based on mean survival time and are expressed as T/C percentages (treated animals/control animals).

L1210 cells [3] = assay: Life span of BDF1 mice inoculated ip with 10^6 L1210 leukemia cells; type: in vivo, mouse; details: for T/C (%): ip day 1, Enantiomer A 37 mg/kg, Enantiomer B 173 mg/kg; for relative activity of the two enantiomers (words): mouse, in vivo; for T/C: single QD day 1 ip (Table 14-b); for Increased life span: qd days 1,3,5,7
Method: As illustrative examples of use of the compounds of the invention the following examples are given. […] These standard tests utilize protocols developed under the auspices of the Developmental Therapeutics Program, Division of Cancer Treatment, National Cancer Institute, Bethesda, Md., U.S.A. Except as otherwise indicated the tests conform to these protocols and are evaluated utilizing criteria defined by the protocols.
as §1
As an indicator of reproducible activity, compounds of the invention and other known cancer chemotherapeutic agents were screened against L1210 lymphoid leukemia in vivo utilizing the mouse as a test species. Normal NCI protocols for this test require 10^5 seed cells of the L1210 cell line.
Cytosine Arabinoside must be given every three hours.
Mice were inoculated intraperitoneally on day 0 with a million cells of murine leukemia L1210. Drug was given qd days 1, 4 and 7. Increased life span is the mean increase in the treated group presented as a percentage of the mean life span of control mice.
Mice were inoculated intraperitoneally on day 0 with a million cells of murine leukemia L1210. Drugs were given qd days 1, 3, 5 and 7. Increased life span is presented as a percentage of the mean life span of control mice.

[4] = test system: Human Colon Adenocarcinoma CX-1; details: data from Goldin et al 1981; activity indicated at ≤20; cited from earlier work
[5] = Toxicity / maximum tolerated dosage in mice; type: in vivo; details: mouse, in vivo, ip, single QD day 1 ip, read-out: Max. tolerated dosage
Method: In Example N other compounds of the invention were tested against L1210 cells. […] Activity in Table 14-a is tabulated as both increases in life span and as cells surviving treatment and that in table 14-b as T/C.

L1210 cells [6] = assay: Bioassay of viable L1210 cells in brain after intracranial inoculation and ip drug; type: in vivo, mouse; details: 24 hr after single ip dose (mg/kg): Methotrexate 12, Adriamycin 3, 6-Mercaptopurine 160, Cytosine Arabinoside 1200, Cyclophosphamide 140, Compound 19 173, Tiazofurin 1200, BCNU 20
Description: BDF1 mice were inoculated intracranially on day 0 with 1×10^5 L1210 cells. […] 24 hr after drug delivery the brains were collected, homogenized, and injected ip into untreated mice. Each mouse received the equivalent of half a brain. Thereafter, life span was monitored and, using inoculum-response data as a base of comparison, estimates were made of the numbers of viable cells in treated and control brains.

## Nc1nc([S+](N)[O-])c2ncn([C@@H]3O[C@H](CO)[C@@H](O)[C@H]3O)c2n1 (single isomer, unassigned) [Enantiomer B]
[1]
  solubility: about 17.3 mg per ml
L1210 cells [2]
  L1210 cells surviving treatment (% of original inoculum): 7.5%
L1210 cells [3]
  T/C (%): 144.9%
  relative activity of the two enantiomers (words): comparable activity

## O=NN(CCCl)C(=O)NC1CCCCC1 [CCNU]
[4]
  Activity rating δT/δC: 77

## Nc1nc(S(N)(=O)=O)c2ncn([C@H]3C[C@H](O)[C@@H](CO)O3)c2n1 [Compound 24, 2-Amino-9-(2-deoxy-β-D-erythro-pentofuranosyl)-9H-purine-6-sulfonamide]
[1]
  Max. sol. dosage: 480 mg/kg
[5]; L1210-inoculated BDF1 mice
  MTD: 288 mg/kg

## O=C(O)CCCc1ccc(N(CCCl)CCCl)cc1 [Chlorambucil]
[4]
  Activity rating δT/δC: 60

## Nc1nc([S+](N)[O-])c2ncn([C@@H]3O[C@H](CO)[C@@H](O)[C@@H]3O)c2n1 (stereo partly drawn) [Compound 50, 2-Amino-9-β-D-arabinofuranosyl-9H-purine-6-sulfinamide]
[1]
  Max. sol. dosage: 800 mg/kg
L1210 cells [3]
  T/C: 140

## CN(C)c1nc(N(C)C)nc(N(C)C)n1 [Hexamethylmelamine]
[4]
  Activity rating δT/δC: 85

## C[C@H]1O[C@@H](n2cnc3c([S+](N)[O-])nc(N)nc32)[C@H](O)[C@@H]1O (stereo partly drawn) [Compound 42, 2-Amino-9-(5-deoxy-β-D-ribofuranosyl)-9H-purine-6-sulfinamide]
[1]
  Max. sol. dosage: 104 mg/kg
L1210 cells [3]; NaOH vehicle
  T/C: 172

## NS(=O)(=O)c1ncnc2c1ccn2[C@H]1C[C@H](O)[C@@H](CO)O1 [Compound 55, 7-(2-Deoxy-β-D-erythro-pentofuranosyl)pyrrolo[2,3-d]-pyrimidine-4-sulfonamide]
[1]
  Max. sol. dosage: 288 mg/kg
L1210 cells [3]
  T/C: 125

## CC[C@]1(O)C[C@H]2CN(CCc3c([nH]c4ccccc34)[C@@](C(=O)OC)(c3cc4c(cc3OC)N(C=O)[C@H]3[C@@](O)(C(=O)OC)[C@H](OC(C)=O)[C@]5(CC)C=CCN6CC[C@]43[C@@H]65)C2)C1 [Vincristine]
[4]
  Activity rating δT/δC: 89

## C[C@H]1O[C@@H](n2cnc3c(S(N)(=O)=O)nc(N)nc32)[C@H](O)[C@@H]1O [Compound 43, 2-Amino-9-(5-deoxy-β-D-ribofuranosyl)-9H-purine-6-sulfonamide]
[1]
  Max. sol. dosage: 480 mg/kg
L1210 cells [3]
  T/C: 130

## CC[C@]1(O)C[C@@H]2CN(CCc3c([nH]c4ccccc34)[C@@](C(=O)OC)(c3cc4c(cc3OC)N(C)[C@H]3[C@@](O)(C(=O)OC)[C@H](OC(C)=O)[C@]5(CC)C=CCN6CC[C@]43[C@@H]65)C2)C1 [Vinblastine]
[4]
  Activity rating δT/δC: 119

## CN(Cc1cnc2nc(N)nc(N)c2n1)c1ccc(C(=O)N[C@@H](CCC(=O)O)C(=O)O)cc1 [Methotrexate, reference compound]
L1210 cells [6]
  Residual cells (% of control brain): 97%
[4]
  Activity rating δT/δC: 66

## NSc1nc(N)nc2nc[nH]c12 [Compound 2, 2-Aminopurine-6-sulfenamide]
[5]; DMSO vehicle, BDF1 mice
  MTD: 37 mg/kg
[5]; NaOH vehicle, BDF1 mice
  MTD: 104 mg/kg

## O=P1(N(CCCl)CCCl)NCCCO1 (centres unmarked) [Cyclophosphamide, reference compound]
L1210 cells [6]
  Residual cells (% of control brain): 11.5%
[4]
  Activity rating δT/δC: 113

## N.N.[Cl][Pt][Cl] [Cis-Platinum]
[4]
  Activity rating δT/δC: 66

## Nc1nc2c(ncn2[C@@H]2O[C@H](CO)[C@@H](O)[C@H]2O)c(=S)[nH]1 [6-Thioguanosine, reference compound]
L1210 cells [3]; 8.1 mg/kg/inj injected
  Increased life span: 48%
L1210 cells [3]; 13 mg/kg/inj injected
  Increased life span: 38%
L1210 cells [3]; 22 mg/kg/inj injected
  Increased life span: 42%
L1210 cells [3]; 37 mg/kg/inj injected
  Increased life span: 45%
L1210 cells [3]; 62 mg/kg/inj injected
  Increased life span: 42%
L1210 cells [3]; 104 mg/kg/inj injected
  Increased life span: 42%
L1210 cells [3]; 173 mg/kg/inj injected
  Increased life span: 52%

## NC(=O)c1csc([C@@H]2O[C@H](CO)[C@@H](O)[C@H]2O)n1 [Tiazofurin, reference compound]
L1210 cells [6]
  Residual cells (% of control brain): 2.9%
L1210 cells [3]; single agent day 1, Compound 19 173 mg/kg, Tiazofurin 22 mg/kg (Table 13)
  % ILS: 44%

## Nc1nc2nc[nH]c2c(=S)[nH]1 [6-Thioguanine]
[4]
  Activity rating δT/δC: 81

## N[C@@H](Cc1ccc(N(CCCl)CCCl)cc1)C(=O)O [Melphalan]
[4]
  Activity rating δT/δC: 101

## O=NN(CCCl)C(=O)NCCCl [BCNU, reference compound]
L1210 cells [6]
  Residual cells (% of control brain): 1.6%
[4]
  Activity rating δT/δC: 63

## NSc1nc(N)nc2c1ncn2[C@H]1C[C@H](O)[C@@H](CO)O1 [Compound 45, 2-Amino-9-(2-deoxy-β-D-erythro-pentofuranosyl)-9H-purine-6-sulfenamide]
[1]
  Max. sol. dosage: 480 mg/kg
L1210 cells [3]
  T/C: 172

## O=NN(CCCl)C(=O)N[C@H]1C(O)O[C@H](CO)[C@@H](O)[C@@H]1O (some centres unmarked) [Chlorozotocin]
[4]
  Activity rating δT/δC: 75

## O=c1[nH]cc(F)c(=O)[nH]1 [5-Fluorouracil]
[4]
  Activity rating δT/δC: 88

## COc1cccc2c1C(=O)c1c(O)c3c(c(O)c1C2=O)C[C@@](O)(C(=O)CO)C[C@@H]3O[C@H]1C[C@H](N)[C@H](O)[C@H](C)O1 [Adriamycin, reference compound]
L1210 cells [6]
  Residual cells (% of control brain): 89.5%
[4]
  Activity rating δT/δC: 72

## Bleomycin
[4]
  Activity rating δT/δC: 51

## CN(C)/N=N/c1[nH]cnc1C(N)=O [DTIC]
[4]
  Activity rating δT/δC: 92

## CC1CCC(NC(=O)N(CCCl)N=O)CC1 (centres unmarked) [Methyl CCNU]
[4]
  Activity rating δT/δC: 83

## Cc1c2oc3c(C)ccc(C(=O)N[C@@H]4C(=O)N[C@H](C(C)C)C(=O)N5CCC[C@H]5C(=O)N(C)CC(=O)N(C)[C@@H](C(C)C)C(=O)O[C@@H]4C)c3nc-2c(C(=O)N[C@@H]2C(=O)N[C@H](C(C)C)C(=O)N3CCC[C@H]3C(=O)N(C)CC(=O)N(C)[C@@H](C(C)C)C(=O)O[C@@H]2C)c(N)c1=O [Actinomycin D] (I: T[dV]P[Sar][NMeV] / II: T[dV]P[Sar][NMeV]; ester I:1-I:C, II:1-II:C; linker I:N-II:N via Actinocin(9to1))
[4]
  Activity rating δT/δC: 73

## CNNCc1ccc(C(=O)NC(C)C)cc1 [Procarbazine]
[4]
  Activity rating δT/δC: 60

## Nc1nc([S+](N)[O-])c2ncn([C@@H]3O[C@H](CO)[C@@H](O)[C@H]3O)c2n1 (single isomer, unassigned) [Enantiomer A]
[1]
  solubility: about 3.7 mg per ml
L1210 cells [2]; 37 mg/kg/inj bid day 1, total A 70.94 mg/kg
  Cells surviving treatment (% of original inoc.): 10%
L1210 cells [2]; 37 mg/kg/inj qd day 1, total A 35.47 mg/kg
  Cells surviving treatment (% of original inoc.): 64%
L1210 cells [2]; 37 mg/kg/inj qid day 1, total A 141.88 mg/kg
  Cells surviving treatment (% of original inoc.): 1%
L1210 cells [2]; 37 mg/kg/inj tid day 1, total A 106.41 mg/kg
  Cells surviving treatment (% of original inoc.): 1%
L1210 cells [2]
  L1210 cells surviving treatment (% of original inoculum): 182.8%
L1210 cells [3]; 37 mg/kg/inj bid day 1, total A 70.94, B 1.26, contaminant 1.80 mg/kg
  % ILS: 44%
L1210 cells [3]; 37 mg/kg/inj printed qid day 1, total A 177.35, B 3.15, contaminant 4.50 mg/kg
  % ILS: 0%
L1210 cells [3]; 37 mg/kg/inj qd day 1, total A 35.47, B 0.63, contaminant 0.90 mg/kg
  % ILS: 22%
L1210 cells [3]; 37 mg/kg/inj qid day 1, total A 141.88, B 2.52, contaminant 3.60 mg/kg
  % ILS: 72%
L1210 cells [3]; 37 mg/kg/inj tid day 1, total A 106.41, B 1.89, contaminant 2.70 mg/kg
  % ILS: 72%
L1210 cells [3]
  T/C (%): 108.7%
  relative activity of the two enantiomers (words): greater activity with respect to enantiomer B because of solubility differences
L1210 cells [3]; listed as enantiomer A
  relative activity of the two enantiomers (words): comparable activity

## CO[C@@]12[C@H](COC(N)=O)C3=C(C(=O)C(C)=C(N)C3=O)N1C[C@@H]1N[C@@H]12 [Mitomycin C]
[4]
  Activity rating δT/δC: 62
